Assay [1] deals with T1, human α1G T-type channels (Homo sapiens, UniProt O43497).
T1 construct: expressed in transfected cells
Kind of assay: T-type calcium channel block, patch clamp in HEK cell lines. It counts as cell-based. The procedure: Standard patch-clamp techniques were employed to identify blockers of T-type currents. Briefly, previously described HEK cell lines stably expressing human α1G T-type channels were used for all the recordings (passage #: 4-20, 37° C., 5% CO2). To obtain T-type currents, plastic dishes containing semi-confluent cells were positioned on the stage of a ZEISS AXIOVERT S100 microscope after replacing the culture medium with external solution (see below). Whole-cell patches were obtained using pipettes (borosilicate glass with filament, O.D.: 1.5 mm, I.D.: 0.86 mm, 10 cm length), fabricated on a SUTTER P-97 puller with resistance values of ˜5 MΩ (see below for internal solution).
In the non-inactivating protocol, the holding potential is set at −110 mV and with a pre-pulse at −100 mV for 1 second prior to the test pulse at 40 mV for 50 ms. […]
Test compounds were dissolved in external solution, 0.1-0.01% DMSO. After ˜10 min rest, they were applied by gravity close to the cell using a WPI microfil tubing. The “non-inactivated” pre-pulse was used to examine the resting block of a compound. The “inactivated” protocol was employed to study voltage-dependent block. However, the initial data shown below were mainly obtained using the non-inactivated protocol only. IC50 values are shown for various compounds of the invention in Table 4.
In general terms: The patch-clamp technique gives a direct electrical read-out from membranes.

In assay [2] the target is T2, rat brain N-type calcium channel subunits (α1B+α2δ+β1b cDNA subunits) (Rattus norvegicus, UniProt Q02294).
T2 construct: expressed in transfected cells; host or cells: HEK 293
Kind of assay: N-type calcium channel block, whole cell patch clamp in transfected HEK 293 cells. It counts as cell-based. As to conditions: holding potential −80 mV to +10 mV. Here is the method:
N-type calcium channel blocking activity was assayed in human embryonic kidney cells, HEK 293, stably transfected with the rat brain N-type calcium channel subunits (α1B+α2δ+β1b cDNA subunits). Alternatively, N-type calcium channels (α1B+α2δ+β1b cDNA subunits), L-type channels (α1C+δ+β1b cDNA subunits) and P/Q-type channels (α1A+α2δ+β1b cDNA subunits) were transiently expressed in HEK 293 cells. Briefly, cells were cultured in Dulbecco's modified eagle medium (DMEM) supplemented with 10% fetal bovine serum, 200 U/ml penicillin and 0.2 mg/ml streptomycin at 37° C. with 5% CO2. At 85% confluency cells were split with 0.25% trypsin/l mM EDTA and plated at 10% confluency on glass coverslips. At 12 hours the medium was replaced and the cells transiently transfected using a standard calcium phosphate protocol and the appropriate calcium channel cDNA's. Fresh DMEM was supplied and the cells transferred to 28° C./5% CO2. Cells were incubated for 1 to 2 days before cell recording.
Whole cell patch clamp experiments were performed using an Axopatch 200B amplifier (Axon Instruments, Burlingame, Calif.) linked to a personal computer equipped with PCLAMP software. The external and internal recording solutions contained, respectively, 5 mM BaCl2, 10 mM MgCl2, 10 mM HEPES, 40 mM TEACl, 10 mM glucose, 87.5 mM CsCl (pH 7.2) and 108 mM CsMS, 4 mM MgCl2, 9 mM EGTA, 9 mM HEPES (pH 7.2). Currents were typically elicited from a holding potential of −80 mV to +10 mV using Clampex software (Axon Instruments). Typically, currents were first elicited with low frequency stimulation (0.067 Hz) and allowed to stabilize prior to application of the compounds. The compounds were then applied during the low frequency pulse trains for two to three minutes to assess tonic block, and subsequently the pulse frequency was increased to 0.2 Hz to assess frequency dependent block. Data were analyzed using Clampfit (Axon Instruments) and SigmaPlot 4.0 (Jandel Scientific). […]

The mark [3] stands for this setting: −80 mV (inactivation protocol, voltage-dependent block), read-out: IC50 - 80 mV.
[4] abbreviates: −100 mV pre-pulse (non-inactivating protocol, resting block), read-out: IC50 - 100 mV.
[5] abbreviates: low frequency stimulation 0.067 Hz (tonic block), read-out: IC50 @ 0.067 Hz.
[6] abbreviates: pulse frequency 0.2 Hz (frequency dependent block), read-out: IC50 @ 0.2 Hz.
Where [7] appears, read: −100 mV pre-pulse (non-inactivating protocol, resting block).

SMILES strings stand for the structures. Like-named read-outs stand apart in the source and are kept apart here.

T2 sequence (Q02294 whole entry): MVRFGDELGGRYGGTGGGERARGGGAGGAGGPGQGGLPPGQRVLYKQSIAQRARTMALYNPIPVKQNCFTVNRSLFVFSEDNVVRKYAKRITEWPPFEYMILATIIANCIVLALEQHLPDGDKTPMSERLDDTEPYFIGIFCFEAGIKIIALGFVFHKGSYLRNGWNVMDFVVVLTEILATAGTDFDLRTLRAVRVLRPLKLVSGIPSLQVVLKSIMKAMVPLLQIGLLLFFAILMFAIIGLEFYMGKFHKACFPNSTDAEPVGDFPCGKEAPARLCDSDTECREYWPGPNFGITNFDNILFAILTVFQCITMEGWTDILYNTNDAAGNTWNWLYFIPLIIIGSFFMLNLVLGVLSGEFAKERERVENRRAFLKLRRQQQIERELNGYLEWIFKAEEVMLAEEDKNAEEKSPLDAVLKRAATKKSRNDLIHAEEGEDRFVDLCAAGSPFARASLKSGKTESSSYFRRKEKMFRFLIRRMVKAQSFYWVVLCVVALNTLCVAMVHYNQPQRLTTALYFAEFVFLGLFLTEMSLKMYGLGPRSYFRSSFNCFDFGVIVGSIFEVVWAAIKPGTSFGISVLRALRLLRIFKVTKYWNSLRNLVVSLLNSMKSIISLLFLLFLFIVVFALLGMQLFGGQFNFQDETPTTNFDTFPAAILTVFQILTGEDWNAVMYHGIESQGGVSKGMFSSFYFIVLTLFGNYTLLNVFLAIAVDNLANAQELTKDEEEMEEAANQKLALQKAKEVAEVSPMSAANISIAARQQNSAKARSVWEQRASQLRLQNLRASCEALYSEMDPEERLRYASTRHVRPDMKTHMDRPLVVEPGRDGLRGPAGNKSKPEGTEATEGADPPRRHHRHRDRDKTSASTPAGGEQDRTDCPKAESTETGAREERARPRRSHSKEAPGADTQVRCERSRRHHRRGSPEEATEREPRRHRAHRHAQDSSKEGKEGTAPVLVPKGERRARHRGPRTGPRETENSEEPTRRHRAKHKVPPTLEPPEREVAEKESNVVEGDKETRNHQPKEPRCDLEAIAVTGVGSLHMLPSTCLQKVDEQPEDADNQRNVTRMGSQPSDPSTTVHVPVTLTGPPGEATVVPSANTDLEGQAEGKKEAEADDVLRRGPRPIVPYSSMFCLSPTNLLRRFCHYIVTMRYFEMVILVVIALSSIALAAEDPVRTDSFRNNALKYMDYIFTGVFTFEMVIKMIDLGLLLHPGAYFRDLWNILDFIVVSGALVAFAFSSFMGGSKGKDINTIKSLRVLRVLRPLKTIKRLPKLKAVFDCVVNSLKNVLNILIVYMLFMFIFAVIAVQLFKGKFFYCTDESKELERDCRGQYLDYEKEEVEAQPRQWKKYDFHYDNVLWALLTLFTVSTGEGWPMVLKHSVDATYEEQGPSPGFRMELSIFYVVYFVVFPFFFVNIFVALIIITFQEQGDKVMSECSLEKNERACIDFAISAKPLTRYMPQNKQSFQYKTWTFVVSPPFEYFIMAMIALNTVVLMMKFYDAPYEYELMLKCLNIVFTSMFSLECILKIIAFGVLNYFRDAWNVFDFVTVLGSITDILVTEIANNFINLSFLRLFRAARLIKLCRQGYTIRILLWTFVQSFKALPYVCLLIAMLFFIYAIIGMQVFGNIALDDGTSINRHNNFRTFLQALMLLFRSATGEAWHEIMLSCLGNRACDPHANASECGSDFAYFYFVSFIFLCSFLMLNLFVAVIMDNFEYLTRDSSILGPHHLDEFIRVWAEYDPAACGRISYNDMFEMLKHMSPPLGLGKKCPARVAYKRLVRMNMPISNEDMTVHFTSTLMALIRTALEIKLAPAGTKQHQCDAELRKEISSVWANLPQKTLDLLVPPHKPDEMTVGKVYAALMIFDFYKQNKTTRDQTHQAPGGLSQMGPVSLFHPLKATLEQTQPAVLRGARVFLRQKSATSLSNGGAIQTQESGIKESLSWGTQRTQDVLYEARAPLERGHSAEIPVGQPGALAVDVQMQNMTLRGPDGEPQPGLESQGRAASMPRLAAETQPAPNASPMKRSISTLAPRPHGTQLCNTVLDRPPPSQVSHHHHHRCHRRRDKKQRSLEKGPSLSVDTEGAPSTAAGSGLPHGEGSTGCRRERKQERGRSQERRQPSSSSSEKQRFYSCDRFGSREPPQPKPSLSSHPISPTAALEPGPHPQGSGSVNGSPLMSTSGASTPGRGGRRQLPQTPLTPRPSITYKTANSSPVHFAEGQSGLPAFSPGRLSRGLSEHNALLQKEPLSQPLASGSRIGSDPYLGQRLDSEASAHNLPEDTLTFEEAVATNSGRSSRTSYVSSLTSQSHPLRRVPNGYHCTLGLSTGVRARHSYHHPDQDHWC
T2 sequence (P54290 25-944 partner limits assumed): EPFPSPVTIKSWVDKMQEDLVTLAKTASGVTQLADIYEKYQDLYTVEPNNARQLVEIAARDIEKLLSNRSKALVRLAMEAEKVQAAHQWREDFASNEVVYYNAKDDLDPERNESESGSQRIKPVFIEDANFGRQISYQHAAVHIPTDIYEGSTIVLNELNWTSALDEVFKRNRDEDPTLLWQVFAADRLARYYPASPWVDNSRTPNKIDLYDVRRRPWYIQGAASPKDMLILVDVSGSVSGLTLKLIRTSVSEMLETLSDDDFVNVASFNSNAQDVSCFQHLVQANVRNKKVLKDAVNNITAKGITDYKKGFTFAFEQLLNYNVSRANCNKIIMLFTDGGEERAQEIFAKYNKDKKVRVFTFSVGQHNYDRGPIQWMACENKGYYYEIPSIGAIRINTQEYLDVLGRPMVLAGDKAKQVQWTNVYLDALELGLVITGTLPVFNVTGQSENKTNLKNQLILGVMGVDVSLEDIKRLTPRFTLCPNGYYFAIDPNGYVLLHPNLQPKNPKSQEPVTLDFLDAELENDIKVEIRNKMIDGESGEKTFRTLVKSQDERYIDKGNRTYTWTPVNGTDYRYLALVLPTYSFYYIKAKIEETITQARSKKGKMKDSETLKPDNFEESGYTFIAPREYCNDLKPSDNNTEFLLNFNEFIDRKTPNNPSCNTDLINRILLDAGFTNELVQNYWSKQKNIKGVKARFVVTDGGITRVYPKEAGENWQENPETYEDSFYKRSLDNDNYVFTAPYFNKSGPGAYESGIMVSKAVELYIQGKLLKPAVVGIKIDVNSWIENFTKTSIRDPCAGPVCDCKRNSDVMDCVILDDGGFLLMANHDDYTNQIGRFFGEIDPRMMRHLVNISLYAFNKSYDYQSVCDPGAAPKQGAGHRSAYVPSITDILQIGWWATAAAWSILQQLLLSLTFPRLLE
T2 sequence (P54290 945-1091 partner limits assumed): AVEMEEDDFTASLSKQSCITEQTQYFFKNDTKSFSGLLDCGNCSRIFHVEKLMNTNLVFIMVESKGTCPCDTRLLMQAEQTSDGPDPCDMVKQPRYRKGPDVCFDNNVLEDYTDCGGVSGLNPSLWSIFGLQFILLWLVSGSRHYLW
T2 sequence (P54283 whole entry partner): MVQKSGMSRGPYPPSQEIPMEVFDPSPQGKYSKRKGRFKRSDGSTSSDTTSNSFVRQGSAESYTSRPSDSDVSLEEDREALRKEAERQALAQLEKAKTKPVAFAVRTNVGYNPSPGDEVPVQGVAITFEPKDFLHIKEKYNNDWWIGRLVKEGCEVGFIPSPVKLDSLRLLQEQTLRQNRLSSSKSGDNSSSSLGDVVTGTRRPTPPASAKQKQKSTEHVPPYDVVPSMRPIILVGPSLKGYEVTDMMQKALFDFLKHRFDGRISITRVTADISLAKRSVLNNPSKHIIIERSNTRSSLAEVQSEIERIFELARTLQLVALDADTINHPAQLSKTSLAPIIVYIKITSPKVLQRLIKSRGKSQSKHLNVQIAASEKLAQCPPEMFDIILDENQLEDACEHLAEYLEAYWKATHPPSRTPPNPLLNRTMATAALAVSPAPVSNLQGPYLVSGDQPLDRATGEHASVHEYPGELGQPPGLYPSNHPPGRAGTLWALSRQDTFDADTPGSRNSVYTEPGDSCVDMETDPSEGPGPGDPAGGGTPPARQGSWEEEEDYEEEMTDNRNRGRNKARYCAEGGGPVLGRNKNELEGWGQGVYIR

For `O=C(CN(c1ccccc1)c1ccccc1)N1CCN(C(c2ccccc2)c2ccccc2)CC1` [Compound 1, 1-(4-Benzhydryl-piperazin-1-yl)-2-diphenylamino-ethanone], the IC50 was 0.51 µM in assay [1] (setting [3]), 1.35 µM in assay [1] (setting [4]), 6.63 µM in assay [2] (setting [5]) and 6.61 µM in assay [2] (setting [6]).

Take `Cc1ccc(C(c2ccccc2)N2CCN(C(=O)CN(c3ccccc3)c3ccccc3)CC2)c(C)c1` (stereo not shown) [Compound 2, 1-{4-[(2,4-Dimethyl-phenyl)-phenyl-methyl]-piperazin-1-yl}-2-diphenylamino-ethanone]: the IC50 in assay [1] (setting [3]) was determined as 0.444 µM; in assay [1] (setting [4]) it was 2 µM; in assay [2] (setting [5]) it was 0.29 µM; in assay [2] (setting [6]), 0.26 µM.

Turning to `O=C(CN(c1ccccc1)c1ccccc1)N1CCN(C(c2ccccc2)c2ccc(Cl)cc2Cl)CC1` (stereo not shown) [Compound 3, 1-{4-[(2,4-Dichloro-phenyl)-phenyl-methyl]-piperazin-1-yl}-2-diphenylamino-ethanone], the IC50 in assay [1] (setting [3]) was 6 µM; in assay [2] (setting [5]), 0.55 µM; in assay [2] (setting [6]), 0.46 µM. Further, in assay [1] (setting [7]), the “IC50 - 100 mV” value is given as “no effect”.

With `O=C(CN(c1ccccc1)c1ccccc1)N1CCN(C(c2ccccc2)c2ccc(Cl)cc2)CC1` (stereo not shown) [Compound 4, 1-{4-[(4-Chloro-phenyl)-phenyl-methyl]-piperazin-1-yl}-2-diphenylamino-ethanone], the IC50 was found to be 0.748 µM in assay [1] (setting [3]), 3.8 µM in assay [1] (setting [4]), 0.55 µM in assay [2] (setting [5]) and 0.5 µM in assay [2] (setting [6]).

As for `O=C(CN(c1ccccc1)c1ccccc1)N1CCN(C(c2ccccc2)c2cccc(Cl)c2)CC1` (stereo not shown) [Compound 5, 1-{4-[(3-Chloro-phenyl)-phenyl-methyl]-piperazin-1-yl}-2-diphenylamino-ethanone], the IC50 in assay [1] (setting [3]) amounted to 0.8 µM; in assay [2] (setting [5]), 0.31 µM; in assay [2] (setting [6]), 0.28 µM. In addition, in assay [1] (setting [7]), the “IC50 - 100 mV” value is given as “no effect”.

Regarding `O=C(CN(c1ccccc1)c1ccccc1)N1CCN(C(c2ccccc2)c2ccccc2Cl)CC1` (stereo not shown) [Compound 6, 1-{4-[(2-Chloro-phenyl)-phenyl-methyl]-piperazin-1-yl}-2-diphenylamino-ethanone], the IC50 in assay [1] (setting [3]) came out at 1.2 µM; in assay [2] (setting [5]) it was 0.33 µM; in assay [2] (setting [6]), 0.32 µM. The “IC50 - 100 mV” value in assay [1] (setting [7]) is reported as “no effect”.

On to `CN1CCCC(CN2CCN(C(=O)CN(c3ccccc3)c3ccccc3)CC2)C1` (stereo not shown) [Compound 10, 2-Diphenylamino-1-[4-(1-methyl-piperidin-3-ylmethyl)-piperazin-1-yl]-ethanone], for which the IC50 in assay [1] (setting [3]) was found to be 2 µM; in assay [1] (setting [4]) it was 10 µM; in assay [2] (setting [5]), 1.1 µM; in assay [2] (setting [6]), 0.98 µM.

With `O=C(CN1CCN(C(c2ccccc2)c2ccccc2)CC1)N(c1ccccc1)c1ccccc1` [Compound 16, 2-(4-Benzhydryl-piperazin-1-yl)-N,N-diphenyl-acetamide], the results for the IC50 in assay [1] (setting [3]), in assay [2] (setting [5]) and in assay [2] (setting [6]) were 1.3 µM, 0.29 µM and 0.26 µM, respectively. For the same molecule, the “IC50 - 100 mV” value in assay [1] (setting [7]) is “no effect”.

As to `O=C(CN1CCN(C(c2ccccc2)c2ccc(Cl)cc2Cl)CC1)N(c1ccccc1)c1ccccc1` (stereo not shown) [Compound 17, 2-{4-[(2,4-Dichloro-phenyl)-phenyl-methyl]-piperazin-1-yl}-N,N-diphenyl-acetamide], the IC50 was 0.029 µM in assay [1] (setting [3]), 0.118 µM in assay [1] (setting [4]), 0.83 µM in assay [2] (setting [5]) and 0.51 µM in assay [2] (setting [6]).

As for `Cc1ccc(C(c2ccccc2)N2CCN(CC(=O)N(c3ccccc3)c3ccccc3)CC2)c(C)c1` (stereo not shown) [Compound 18, 2-{4-[(2,4-Dimethyl-phenyl)-phenyl-methyl]-piperazin-1-yl}-N,N-diphenyl-acetamide], the IC50 in assay [1] (setting [3]) was 0.084 µM; in assay [1] (setting [4]), 0.229 µM; in assay [2] (setting [5]), 1.76 µM; in assay [2] (setting [6]), 1.25 µM.

Usually IC50 stands for the concentration at which inhibition is half-maximal.
